Source: ChEMBL document CHEMBL1201862, “PubChem BioAssay data set” (2004)
Active and inactive are the calls of the source.

Assays:
INS1 = assay: beta cell apoptosis inhibitors, cytokine rescue, dose response, luminescence, retest (AID 449756); type: functional, cell-based; conditions: Rattus norvegicus;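 note: cell death triggered by IL-1 beta plus TNF-alpha plus IFN-gamma mixture; protective hits raise ATP signal compared with cytokine alone wells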
[1] = ZM109 Env clade C HIV-1 fusion inhibitors, dose response, HeLa effector, CEM target cells, luciferase, cherry-pick (AID 652058); type: functional, cell-based
[2] = inhibitors of clade B AD8 Env fusion, dose response, cell-based, cherry-pick (AID 652062); type: functional;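 note: luciferase signal from cell-cell fusion driven by HIV-1 clade B AD8 Env; potency is for inhibitors of fusion seen as a drop in luminescence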
Cytochrome P450 1A2 = target: T1, Cytochrome P450 1A2 (Homo sapiens, UniProt P05177);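 note: PubChem cytochrome P450 panel assay, CYP1A2 panel member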
T1 sequence (P05177 whole entry): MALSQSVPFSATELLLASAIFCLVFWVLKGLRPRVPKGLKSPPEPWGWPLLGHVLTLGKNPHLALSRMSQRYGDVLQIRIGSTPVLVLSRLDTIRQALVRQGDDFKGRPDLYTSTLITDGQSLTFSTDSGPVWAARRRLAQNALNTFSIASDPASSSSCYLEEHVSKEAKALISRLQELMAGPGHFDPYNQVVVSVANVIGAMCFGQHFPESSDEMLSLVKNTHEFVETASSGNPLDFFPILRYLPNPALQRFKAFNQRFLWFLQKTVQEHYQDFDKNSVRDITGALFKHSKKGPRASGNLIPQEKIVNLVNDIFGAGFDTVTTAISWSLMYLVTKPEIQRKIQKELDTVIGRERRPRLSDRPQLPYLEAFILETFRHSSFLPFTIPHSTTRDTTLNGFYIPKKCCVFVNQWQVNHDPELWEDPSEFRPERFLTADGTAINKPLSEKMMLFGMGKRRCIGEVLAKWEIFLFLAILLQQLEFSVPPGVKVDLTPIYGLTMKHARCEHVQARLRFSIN

[3] = Luminescence Cell-Based Dose Retest to Confirm Inhibitors of Cancer Stem Cells. [Related pubchem assays (depositor defined):AID2717, AID2721]; type: functional; conditions: Homo sapiens
[4] = Shn3 3'UTR reporter inhibitors, dose response, cell-based, Clone20 osteoblasts, firefly luciferase, cherry-picked (AID 624132); type: functional;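 note: firefly luciferase luminescence from reporter carrying the Shn3 3'UTR in osteoblasts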
[5] = HepG2 cell cytotoxicity, dose response, cytotoxicity control for Shn3 inhibitor project, CellTiter-Glo, cherry-picked (AID 624134); type: functional, cell-based
Paired box protein Pax-8 = Paired box protein Pax-8 (Homo sapiens, UniProt Q06710); assay: inhibitors of PAX8-driven TPO luciferase reporter, dose response, RMG-I cells, cherry-pick (AID 687027); type: functional, cell-based;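 note: luciferase reporter driven by Pax8 target thyroperoxidase promoter measured by SteadyGlo luminescence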
[6] = non-specific cell cytotoxicity, dose response, cytotoxicity control for PAX8 inhibitor project, plate reader, dry powder samples (AID 743021); type: functional, cell-based
Nonstructural protein 1 = Nonstructural protein 1 (Influenza A virus, UniProt Q194T2); type: functional, Influenza A virus (A/California/07/2009(H1N1))
[7] = target: T2, Replicative DNA helicase DnaB (Mycobacterium tuberculosis, UniProt P9WMR3); assay: DnaB intein splicing inhibitors, dose response, biochemical, cell-free fluorescence (AID 449749); type: functional
T2 sequence (P9WMR3 whole entry): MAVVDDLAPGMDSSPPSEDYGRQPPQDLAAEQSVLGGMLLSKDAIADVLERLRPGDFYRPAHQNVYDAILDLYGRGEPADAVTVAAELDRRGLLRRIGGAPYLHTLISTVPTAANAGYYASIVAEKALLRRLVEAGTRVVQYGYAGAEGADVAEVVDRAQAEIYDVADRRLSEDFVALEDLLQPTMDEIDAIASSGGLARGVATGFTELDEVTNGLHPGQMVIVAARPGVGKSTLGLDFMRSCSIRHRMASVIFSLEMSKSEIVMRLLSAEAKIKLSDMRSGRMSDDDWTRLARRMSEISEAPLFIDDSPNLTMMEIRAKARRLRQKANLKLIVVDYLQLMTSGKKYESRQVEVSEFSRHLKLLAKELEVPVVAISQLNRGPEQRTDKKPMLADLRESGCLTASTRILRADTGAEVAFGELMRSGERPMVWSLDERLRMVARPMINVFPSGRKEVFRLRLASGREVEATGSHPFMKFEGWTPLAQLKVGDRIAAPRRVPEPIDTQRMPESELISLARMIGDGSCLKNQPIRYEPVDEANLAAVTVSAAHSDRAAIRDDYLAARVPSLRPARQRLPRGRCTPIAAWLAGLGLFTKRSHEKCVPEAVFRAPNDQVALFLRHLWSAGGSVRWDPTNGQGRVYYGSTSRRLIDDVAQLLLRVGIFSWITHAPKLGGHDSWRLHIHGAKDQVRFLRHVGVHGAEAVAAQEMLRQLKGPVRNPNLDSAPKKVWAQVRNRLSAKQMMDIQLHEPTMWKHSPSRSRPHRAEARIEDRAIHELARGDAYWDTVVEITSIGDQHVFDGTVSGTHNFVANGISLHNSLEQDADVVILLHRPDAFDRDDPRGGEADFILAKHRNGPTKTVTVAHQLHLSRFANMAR

[8] = target: T3, Apoptotic protease-activating factor 1 (Homo sapiens, UniProt O14727); type: functional
T3 sequence (O14727 whole entry): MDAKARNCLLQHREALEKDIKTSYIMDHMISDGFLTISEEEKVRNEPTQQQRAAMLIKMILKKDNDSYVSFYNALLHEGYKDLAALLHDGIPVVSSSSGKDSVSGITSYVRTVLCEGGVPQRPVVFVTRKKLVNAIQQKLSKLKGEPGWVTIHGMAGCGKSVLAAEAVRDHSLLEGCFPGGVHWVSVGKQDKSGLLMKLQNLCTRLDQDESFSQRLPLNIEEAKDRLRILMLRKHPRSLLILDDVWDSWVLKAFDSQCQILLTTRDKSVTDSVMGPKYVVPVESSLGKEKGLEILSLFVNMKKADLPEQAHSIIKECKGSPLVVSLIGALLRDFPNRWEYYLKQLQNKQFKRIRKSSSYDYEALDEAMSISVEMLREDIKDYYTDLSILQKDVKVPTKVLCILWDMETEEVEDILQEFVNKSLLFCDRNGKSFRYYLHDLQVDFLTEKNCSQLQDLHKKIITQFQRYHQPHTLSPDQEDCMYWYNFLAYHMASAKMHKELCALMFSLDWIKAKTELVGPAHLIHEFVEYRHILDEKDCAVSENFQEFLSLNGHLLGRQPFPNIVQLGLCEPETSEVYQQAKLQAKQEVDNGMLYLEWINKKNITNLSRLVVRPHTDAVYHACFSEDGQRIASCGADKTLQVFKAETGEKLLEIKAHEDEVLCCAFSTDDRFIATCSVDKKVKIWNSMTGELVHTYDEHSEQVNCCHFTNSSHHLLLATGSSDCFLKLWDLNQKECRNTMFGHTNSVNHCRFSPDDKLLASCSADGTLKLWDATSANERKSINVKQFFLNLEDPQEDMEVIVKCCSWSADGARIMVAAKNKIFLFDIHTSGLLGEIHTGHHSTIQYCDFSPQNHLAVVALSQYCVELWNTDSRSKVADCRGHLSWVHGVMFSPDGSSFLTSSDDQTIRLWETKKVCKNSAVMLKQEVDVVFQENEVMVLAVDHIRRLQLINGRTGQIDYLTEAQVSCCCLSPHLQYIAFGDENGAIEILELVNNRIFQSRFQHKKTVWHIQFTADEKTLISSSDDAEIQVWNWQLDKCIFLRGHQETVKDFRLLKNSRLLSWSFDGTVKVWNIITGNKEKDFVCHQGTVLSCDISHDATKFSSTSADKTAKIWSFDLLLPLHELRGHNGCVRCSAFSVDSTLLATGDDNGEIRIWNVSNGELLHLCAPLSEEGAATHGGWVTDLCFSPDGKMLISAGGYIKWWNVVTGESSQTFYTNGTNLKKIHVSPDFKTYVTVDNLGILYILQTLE

Protein RecA = target: T4, Protein RecA (Mycobacterium tuberculosis, UniProt P9WHJ3); assay: Fluorescence Cell-Free Homogeneous Dose Retest to Identify Inhibitors of RecA-Intein Splicing Activity. [Related pubchem assays (depositor defined):AID2097, AID2223, AID489010, AID492950]; type: functional
T4 sequence (P9WHJ3 whole entry): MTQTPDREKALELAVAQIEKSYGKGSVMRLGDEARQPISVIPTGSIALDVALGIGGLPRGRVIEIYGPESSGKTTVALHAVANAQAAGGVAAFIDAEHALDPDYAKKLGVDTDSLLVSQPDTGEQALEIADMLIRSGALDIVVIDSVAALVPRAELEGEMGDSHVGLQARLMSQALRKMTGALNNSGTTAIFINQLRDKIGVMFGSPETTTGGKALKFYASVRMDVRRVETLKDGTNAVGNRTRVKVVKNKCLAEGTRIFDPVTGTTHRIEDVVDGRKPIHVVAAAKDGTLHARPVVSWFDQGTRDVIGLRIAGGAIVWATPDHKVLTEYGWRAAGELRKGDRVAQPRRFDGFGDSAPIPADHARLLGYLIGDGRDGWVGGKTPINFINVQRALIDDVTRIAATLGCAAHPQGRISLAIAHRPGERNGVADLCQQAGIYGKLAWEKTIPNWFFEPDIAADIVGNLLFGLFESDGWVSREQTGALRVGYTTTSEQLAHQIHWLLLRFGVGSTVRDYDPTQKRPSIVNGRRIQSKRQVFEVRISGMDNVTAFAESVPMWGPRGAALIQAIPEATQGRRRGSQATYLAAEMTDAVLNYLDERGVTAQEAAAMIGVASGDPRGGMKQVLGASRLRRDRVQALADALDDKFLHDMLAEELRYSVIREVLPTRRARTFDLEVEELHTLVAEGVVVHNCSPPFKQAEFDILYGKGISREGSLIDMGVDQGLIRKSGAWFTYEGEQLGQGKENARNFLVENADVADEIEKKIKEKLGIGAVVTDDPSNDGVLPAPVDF

[9] = inhibitors of HIV Env-driven cell fusion, dose response, cherry-pick (AID 652057); type: functional, cell-based
Vero = Vero cell cytotoxicity, cytotoxicity control for flavivirus capping enzyme inhibitors (AID 588742); type: functional; conditions: Chlorocebus sabaeus
Genome polyprotein = Genome polyprotein (dengue virus type 2, UniProt P29990); assay: Dengue-2 NS5 methyltransferase inhibitors, primary screen, biochemical, confirmation dose response (AID 588689); type: functional
[10] = target: T5, Carboxy-terminal domain RNA polymerase II polypeptide A small phosphatase 1 (Homo sapiens, UniProt Q9GZU7); assay: inhibitors of CTDSP1, concentration-response testing, biochemical assay, absorbance-based, actives from ultra-high-throughput screening (AID 540297); type: functional
T5 sequence (Q9GZU7 whole entry): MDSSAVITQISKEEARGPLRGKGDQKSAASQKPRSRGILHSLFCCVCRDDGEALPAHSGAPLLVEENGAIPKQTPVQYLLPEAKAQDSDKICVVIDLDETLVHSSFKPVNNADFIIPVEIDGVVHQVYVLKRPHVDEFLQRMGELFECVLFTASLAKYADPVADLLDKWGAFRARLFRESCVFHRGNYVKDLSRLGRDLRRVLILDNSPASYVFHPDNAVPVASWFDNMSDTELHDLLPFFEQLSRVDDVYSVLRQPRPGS

HEK293 = assay: inhibitors of LMP1-driven NF-kB reporter, dose response, cell-based, HEK293, luciferase, cherry-pick (AID 588343); type: functional; conditions: Homo sapiens
[11] = LGR2 antagonists, dose response, cell-based, HEK293, CRE-luciferase reporter, cherry pick, set 2 (AID 743343); type: functional;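 note: transfected cells were stimulated with diluted bursicon conditioned medium after compound addition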
[12] = MC4R antagonists, dose response, counter-screen for LGR2 antagonist project, cell-based, plate reader, cherry pick (AID 743444); type: functional;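 note: transfected HEK 293 cells stimulated with alpha-MSH peptide; potency of inhibitors of the alpha-MSH evoked signal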

Chain of Nonstructural protein 1 (Q194T2 whole entry): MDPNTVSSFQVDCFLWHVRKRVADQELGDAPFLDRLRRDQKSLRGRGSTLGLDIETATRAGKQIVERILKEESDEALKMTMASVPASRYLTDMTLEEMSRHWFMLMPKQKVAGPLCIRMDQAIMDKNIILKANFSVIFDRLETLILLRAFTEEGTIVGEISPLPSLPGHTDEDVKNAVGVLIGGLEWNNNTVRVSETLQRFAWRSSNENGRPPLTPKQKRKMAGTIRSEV
Chain of Paired box protein Pax-8 (Q06710 whole entry): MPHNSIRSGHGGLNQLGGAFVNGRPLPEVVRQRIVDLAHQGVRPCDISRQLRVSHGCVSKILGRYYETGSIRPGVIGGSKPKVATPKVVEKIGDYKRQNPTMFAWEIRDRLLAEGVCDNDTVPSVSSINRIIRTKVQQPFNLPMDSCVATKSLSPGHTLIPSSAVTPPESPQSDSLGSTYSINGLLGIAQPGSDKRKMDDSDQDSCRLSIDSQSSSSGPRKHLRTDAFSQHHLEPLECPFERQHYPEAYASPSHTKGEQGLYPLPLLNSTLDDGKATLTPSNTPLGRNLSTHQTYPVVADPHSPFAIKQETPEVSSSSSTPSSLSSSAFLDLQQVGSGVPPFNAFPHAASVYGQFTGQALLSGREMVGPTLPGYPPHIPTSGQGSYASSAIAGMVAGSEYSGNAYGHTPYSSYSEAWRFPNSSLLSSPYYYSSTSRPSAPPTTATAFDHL
Chain of Genome polyprotein (P29990 2492-3391 limits assumed): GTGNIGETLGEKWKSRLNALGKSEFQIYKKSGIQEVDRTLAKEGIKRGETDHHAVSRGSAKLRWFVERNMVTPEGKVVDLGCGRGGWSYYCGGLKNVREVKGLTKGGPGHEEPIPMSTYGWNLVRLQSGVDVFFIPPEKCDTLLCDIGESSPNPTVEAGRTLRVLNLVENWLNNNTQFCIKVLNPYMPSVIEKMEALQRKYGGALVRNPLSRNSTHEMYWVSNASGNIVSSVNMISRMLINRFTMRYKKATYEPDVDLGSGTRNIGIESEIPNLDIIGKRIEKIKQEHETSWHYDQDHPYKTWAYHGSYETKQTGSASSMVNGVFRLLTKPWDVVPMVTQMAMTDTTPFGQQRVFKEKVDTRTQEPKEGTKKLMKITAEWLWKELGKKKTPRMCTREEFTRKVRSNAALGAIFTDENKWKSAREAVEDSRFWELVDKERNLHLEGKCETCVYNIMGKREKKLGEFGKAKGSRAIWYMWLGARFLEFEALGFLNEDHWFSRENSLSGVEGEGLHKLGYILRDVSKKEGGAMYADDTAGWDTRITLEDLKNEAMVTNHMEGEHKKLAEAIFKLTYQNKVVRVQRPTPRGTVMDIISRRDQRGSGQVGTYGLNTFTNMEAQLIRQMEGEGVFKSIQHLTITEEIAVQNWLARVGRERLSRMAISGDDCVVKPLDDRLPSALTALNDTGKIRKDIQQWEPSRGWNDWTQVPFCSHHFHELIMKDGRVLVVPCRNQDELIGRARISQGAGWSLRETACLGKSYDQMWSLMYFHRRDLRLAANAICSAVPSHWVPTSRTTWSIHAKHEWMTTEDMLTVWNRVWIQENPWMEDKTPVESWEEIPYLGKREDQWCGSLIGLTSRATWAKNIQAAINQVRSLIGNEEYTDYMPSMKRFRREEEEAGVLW

## CCN(C1CCCCC1)S(=O)(=O)c1ccc(S(=O)(=O)NCc2ccncc2)cc1
INS1
  AC50: 5.12 µM (active)
[1]
  AC50: 3.52 µM (active)
[2]
  AC50: 7.99 µM (active)
Cytochrome P450 1A2
  AC50: 15.8 µM (inconclusive)

## O=c1cc(-c2ccc(O)cc2)oc2ccc3ccccc3c12
[3]
  AC50: 2.15 µM (active)
[4]
  AC50: 5.41 µM (active)
[5]
  AC50: 41.6 µM (active)
Paired box protein Pax-8
  AC50: 8.88 µM (active)
[6]
  AC50: 31.3 µM (active)

## Cc1cc(C(=O)N/N=C/c2c(C)nn(-c3ccccc3)c2O)[nH]n1
Nonstructural protein 1
  IC50: 11.8 µM (active)
[7]
  AC50: 226 µM (active)
[8]
  IC50: 6.97 µM (active)
Protein RecA
  EC50: 27 µM (active)

## COc1ccc(S(=O)(=O)N(C)C[C@@H]2Oc3ccc(NC(=O)C4CCCCC4)cc3CC(=O)N([C@H](C)CO)C[C@@H]2C)cc1
[9]
  AC50: 0.574 µM (active)
[1]
  AC50: 2.96 µM (active)
[2]
  AC50: 4.51 µM (active)

## c1coc(-c2nc3nc4ccccc4n3nc2-c2ccco2)c1
Vero
  CC50: > 40 µM (active)
Genome polyprotein
  IC50: 99.3 µM (active)

## Cc1cccc(C(=O)Nc2ccc(C(=O)N/N=C/c3ccco3)cc2)c1
[10]
  IC50: 4.79 µM (active)

## c1ccc2c(c1)nc(N1CCCCCC1)c1ccccc12
[10]
  IC50: 17.4 µM (active)

## Cc1c(NC(=O)c2cccc(NC(=O)COc3ccccc3C#N)c2)c(=O)n(-c2ccccc2)n1C
HEK293
  AC50: 5.77 µM (active)
[11]
  AC50: 2.66 µM (active)
[12]
  AC50: 4.53 µM (active)
